Reference: paper PMC3223731, “Environment sensing and response mediated by ABC transporters” (BMC Genomics, 2011)

What was measured:
Assay type in all cases: binding
RPA2014 = molecular target: T1, RPA2014 (Rhodopseudomonas palustris, UniProt Q6N890); assay: fluorescence thermal shift (SYPRO orange); settings: 100x ligand over protein (5 or 10 µM protein), 100 mM HEPES, 150 mM NaCl, pH 7.5
T1 construct: gene TX73_010380; mature form, signal peptide removed; N-terminal 6xHis-TEV tag retained; E. coli
T1 sequence (Q6N890 31-371): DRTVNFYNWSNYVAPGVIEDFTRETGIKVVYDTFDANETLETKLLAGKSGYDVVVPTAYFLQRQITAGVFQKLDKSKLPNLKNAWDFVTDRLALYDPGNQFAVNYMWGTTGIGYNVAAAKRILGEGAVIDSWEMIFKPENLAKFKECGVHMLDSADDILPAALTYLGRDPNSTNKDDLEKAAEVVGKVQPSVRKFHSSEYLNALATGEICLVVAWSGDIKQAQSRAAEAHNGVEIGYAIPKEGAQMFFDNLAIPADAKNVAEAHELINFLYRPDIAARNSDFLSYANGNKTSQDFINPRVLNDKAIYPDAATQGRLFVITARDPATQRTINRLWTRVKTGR

RPA3810 = molecular target: T2, RPA3810 (Rhodopseudomonas palustris, UniProt Q6N384); assay: fluorescence thermal shift (SYPRO orange); settings: 100x ligand over protein (5 or 10 µM protein); 100 mM HEPES, 150 mM NaCl, pH 7.5
T2 construct: gene TX73_019730; mature form, signal peptide removed; N-terminal 6xHis-TEV tag retained; E. coli
T2 sequence (Q6N384 23-368): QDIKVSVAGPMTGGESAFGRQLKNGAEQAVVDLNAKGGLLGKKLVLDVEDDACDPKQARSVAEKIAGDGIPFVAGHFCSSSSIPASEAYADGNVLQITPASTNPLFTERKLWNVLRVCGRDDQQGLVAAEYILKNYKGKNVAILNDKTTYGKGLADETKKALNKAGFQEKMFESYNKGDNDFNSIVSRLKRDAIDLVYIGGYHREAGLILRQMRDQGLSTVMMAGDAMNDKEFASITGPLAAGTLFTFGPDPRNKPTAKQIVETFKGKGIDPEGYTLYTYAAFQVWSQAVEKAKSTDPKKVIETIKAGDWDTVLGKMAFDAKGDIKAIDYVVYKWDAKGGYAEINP

RPA4780 = molecular target: T3, RPA4780 (Rhodopseudomonas palustris, UniProt Q6N0I2); settings: 100x ligand over protein (5 or 10 µM protein); 100 mM HEPES, 150 mM NaCl, pH 7.5
T3 construct: gene pstS; mature form, signal peptide removed; N-terminal 6xHis-TEV tag retained; E. coli
T3 sequence (Q6N0I2 22-336): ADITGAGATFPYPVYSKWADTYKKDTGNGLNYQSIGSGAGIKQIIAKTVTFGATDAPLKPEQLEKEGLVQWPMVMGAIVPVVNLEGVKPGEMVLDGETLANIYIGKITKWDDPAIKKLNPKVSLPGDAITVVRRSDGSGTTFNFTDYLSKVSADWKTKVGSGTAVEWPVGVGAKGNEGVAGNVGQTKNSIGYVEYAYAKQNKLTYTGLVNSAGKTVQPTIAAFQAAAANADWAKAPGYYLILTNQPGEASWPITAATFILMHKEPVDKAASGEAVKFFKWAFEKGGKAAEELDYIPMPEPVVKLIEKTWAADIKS

RPA0668 (hbaE) = molecular target: T4, RPA0668 (hbaE) (Rhodopseudomonas palustris, UniProt G3XCQ4); assay: fluorescence thermal shift (SYPRO orange); settings: 100x ligand over protein (5 or 10 µM protein); 100 mM HEPES, 150 mM NaCl, pH 7.5
T4 construct: mature form, signal peptide removed; N-terminal 6xHis-TEV tag retained; E. coli
T4 sequence (G3XCQ4 entry or part of it): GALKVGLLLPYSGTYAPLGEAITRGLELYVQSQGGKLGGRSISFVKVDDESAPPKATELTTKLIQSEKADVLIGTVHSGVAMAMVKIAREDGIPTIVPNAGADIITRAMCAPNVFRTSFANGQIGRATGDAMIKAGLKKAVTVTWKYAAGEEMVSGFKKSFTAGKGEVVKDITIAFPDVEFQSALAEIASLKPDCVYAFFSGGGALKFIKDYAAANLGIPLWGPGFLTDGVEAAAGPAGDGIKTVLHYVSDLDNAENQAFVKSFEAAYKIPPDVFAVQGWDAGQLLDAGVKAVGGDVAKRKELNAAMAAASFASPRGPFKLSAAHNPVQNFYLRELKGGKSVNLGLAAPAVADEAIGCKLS

RPA1789 = molecular target: T5, RPA1789 (Rhodopseudomonas palustris, UniProt Q6N8W4); assay: fluorescence thermal shift (SYPRO orange); settings: 100x ligand over protein (5 or 10 µM protein); 100 mM HEPES, 150 mM NaCl, pH 7.5
T5 construct: mature form, signal peptide removed; N-terminal 6xHis-TEV tag retained; E. coli
T5 sequence (Q6N8W4 27-385): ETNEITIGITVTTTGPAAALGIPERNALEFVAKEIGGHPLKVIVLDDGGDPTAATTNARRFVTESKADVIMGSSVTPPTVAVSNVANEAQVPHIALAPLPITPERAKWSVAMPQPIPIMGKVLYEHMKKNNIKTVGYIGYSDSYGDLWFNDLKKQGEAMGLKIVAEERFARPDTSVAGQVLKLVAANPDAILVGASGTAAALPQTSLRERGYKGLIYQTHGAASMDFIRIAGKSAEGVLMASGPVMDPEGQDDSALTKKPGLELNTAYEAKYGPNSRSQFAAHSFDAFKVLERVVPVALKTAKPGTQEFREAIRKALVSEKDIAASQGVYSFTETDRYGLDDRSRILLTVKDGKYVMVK

RPA0058 = molecular target: T6, RPA0058 (Rhodopseudomonas palustris, UniProt Q6NDP7); assay: fluorescence thermal shift (SYPRO orange); settings: 100x ligand over protein (5 or 10 µM protein); 100 mM HEPES, 150 mM NaCl, pH 7.5
T6 construct: gene ugpB; mature form, signal peptide removed; N-terminal 6xHis-TEV tag retained; E. coli
T6 sequence (Q6NDP7 24-442): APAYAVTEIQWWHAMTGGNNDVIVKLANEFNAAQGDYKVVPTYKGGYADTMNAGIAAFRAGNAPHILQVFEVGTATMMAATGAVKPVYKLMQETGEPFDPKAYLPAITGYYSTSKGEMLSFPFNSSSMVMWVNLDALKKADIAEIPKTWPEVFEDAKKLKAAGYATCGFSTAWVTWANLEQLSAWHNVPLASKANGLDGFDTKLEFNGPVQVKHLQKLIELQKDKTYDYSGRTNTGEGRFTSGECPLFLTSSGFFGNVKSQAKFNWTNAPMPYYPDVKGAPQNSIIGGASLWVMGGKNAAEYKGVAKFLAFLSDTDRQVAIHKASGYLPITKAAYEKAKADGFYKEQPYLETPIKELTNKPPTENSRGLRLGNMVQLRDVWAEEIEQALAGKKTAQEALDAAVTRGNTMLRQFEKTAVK

RPA0985 = molecular target: T7, RPA0985 (Rhodopseudomonas palustris, UniProt Q6NB45); assay: fluorescence thermal shift (SYPRO orange); settings: 100x ligand over protein (5 or 10 µM protein); 100 mM HEPES, 150 mM NaCl, pH 7.5
T7 construct: mature form, signal peptide removed; N-terminal 6xHis-TEV tag retained; E. coli
T7 sequence (Q6NB45 23-390): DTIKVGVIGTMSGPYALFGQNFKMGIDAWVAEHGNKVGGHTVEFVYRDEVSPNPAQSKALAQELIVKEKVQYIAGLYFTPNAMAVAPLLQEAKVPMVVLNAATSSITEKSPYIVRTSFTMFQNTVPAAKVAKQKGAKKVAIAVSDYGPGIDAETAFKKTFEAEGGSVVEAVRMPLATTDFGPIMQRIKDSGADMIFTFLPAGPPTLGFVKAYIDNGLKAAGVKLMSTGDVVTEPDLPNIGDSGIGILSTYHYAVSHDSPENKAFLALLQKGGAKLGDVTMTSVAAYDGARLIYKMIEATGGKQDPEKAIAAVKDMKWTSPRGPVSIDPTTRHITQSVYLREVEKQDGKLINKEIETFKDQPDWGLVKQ

RPA4029 = molecular target: T8, RPA4029 (Rhodopseudomonas palustris, UniProt Q6N2M1); assay: fluorescence thermal shift (SYPRO orange); settings: 100x ligand over protein (5 or 10 µM protein); 100 mM HEPES, 150 mM NaCl, pH 7.5
T8 construct: gene TX73_020875; mature form, signal peptide removed; N-terminal 6xHis-TEV tag retained; E. coli
T8 sequence (Q6N2M1 28-392): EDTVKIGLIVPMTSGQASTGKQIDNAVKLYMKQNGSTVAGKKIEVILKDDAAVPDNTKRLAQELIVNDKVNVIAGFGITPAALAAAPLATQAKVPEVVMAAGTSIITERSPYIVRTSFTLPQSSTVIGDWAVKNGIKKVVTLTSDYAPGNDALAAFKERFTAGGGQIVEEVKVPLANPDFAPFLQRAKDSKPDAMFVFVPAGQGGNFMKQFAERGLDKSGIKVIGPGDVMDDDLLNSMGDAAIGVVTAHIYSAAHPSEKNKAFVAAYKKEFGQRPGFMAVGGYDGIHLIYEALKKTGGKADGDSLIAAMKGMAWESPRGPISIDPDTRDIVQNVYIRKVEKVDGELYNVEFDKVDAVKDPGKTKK

NCCCNCCCCNCCCN [spermine]
ΔTm (RPA2014; low affinity): spermine still binds this protein with low affinity in the FTS assay

NCC(=O)O [glycine]
ΔTm (RPA3810): RPA3810, shifted primarily with amino acids with preferences for alanine, glycine and serine

O=P(O)(O)O [phosphate]
ΔTm (RPA4780): RPA0058 and RPA4780 exhibited specific stabilization by glycerol-3-phosphate and phosphate, respectively

NCCCCN [putrescine]
ΔTm (RPA2014): indeed shifted with putrescine preferentially over spermine

O=C(O)c1ccccc1O [salicylic acid]
ΔTm (RPA0668 (hbaE)): closely related derivatives, 4-hydroxybenzoic acid, salicylate, and benzaldehyde

COc1cc(/C=C/C(=O)O)ccc1O [ferulic acid]
ΔTm (RPA1789): one protein bound p-coumaric acid, ferulic acid, and cinnamic acid with good affinities

O=C(O)/C=C/c1ccc(O)cc1 [p-coumaric acid]
ΔTm (RPA1789): one protein bound p-coumaric acid, ferulic acid, and cinnamic acid with good affinities

O=C(O)/C=C/c1ccccc1 [cinnamic acid]
ΔTm (RPA1789): one protein bound p-coumaric acid, ferulic acid, and cinnamic acid with good affinities

O=P(O)(O)OC[C@H](O)CO [glycerol-3-phosphate]
ΔTm (RPA0058): RPA0058 and RPA4780 exhibited specific stabilization by glycerol-3-phosphate and phosphate, respectively

O=C(O)c1ccc(O)cc1 [4-hydroxybenzoic acid]
ΔTm (RPA0985): 29.5 °C
ΔTm (RPA0668 (hbaE)): closely related derivatives, 4-hydroxybenzoic acid, salicylate, and benzaldehyde
ΔTm (RPA4029): 17 °C
